Patent publication US12673975B2, “Cyclic peptide, cell scaffold material, cell separating material, and medium” (FUJIFILM Corporation, priority 2019, dated 2026)
Where two headings read alike, the source gives them in different places. Starred links: 1 amine or outer side, 2 acyl side, 3 side chain; linkers in the order of their positions; H or OH if unused. Positions of bridges follow the written chain, without caps; N, C: chain ends. Non-standard residues stand in square brackets, D forms with d. Residues, ends and D or L forms follow the SMILES beside them. Pen = CC(C)(S)[C@H](N)C(=O)O; hCys = N[C@@H](CCS)C(=O)O; Orn = NCCC[C@H](N)C(=O)O; Dab = NCC[C@H](N)C(=O)O; X1 = O=C(C[*:2])[*:1]; X2 = O=C(C[*:1])[*:2]

How the values were obtained:
human integrin αvβ5 = human integrin αvβ5 (Homo sapiens, UniProt P06756+P18084); experiment: Evaluation of integrin binding property (surface plasmon resonance, Biacore 3000, immobilized cyclic peptide)
Chain of human integrin αvβ5 (P06756 31-1048): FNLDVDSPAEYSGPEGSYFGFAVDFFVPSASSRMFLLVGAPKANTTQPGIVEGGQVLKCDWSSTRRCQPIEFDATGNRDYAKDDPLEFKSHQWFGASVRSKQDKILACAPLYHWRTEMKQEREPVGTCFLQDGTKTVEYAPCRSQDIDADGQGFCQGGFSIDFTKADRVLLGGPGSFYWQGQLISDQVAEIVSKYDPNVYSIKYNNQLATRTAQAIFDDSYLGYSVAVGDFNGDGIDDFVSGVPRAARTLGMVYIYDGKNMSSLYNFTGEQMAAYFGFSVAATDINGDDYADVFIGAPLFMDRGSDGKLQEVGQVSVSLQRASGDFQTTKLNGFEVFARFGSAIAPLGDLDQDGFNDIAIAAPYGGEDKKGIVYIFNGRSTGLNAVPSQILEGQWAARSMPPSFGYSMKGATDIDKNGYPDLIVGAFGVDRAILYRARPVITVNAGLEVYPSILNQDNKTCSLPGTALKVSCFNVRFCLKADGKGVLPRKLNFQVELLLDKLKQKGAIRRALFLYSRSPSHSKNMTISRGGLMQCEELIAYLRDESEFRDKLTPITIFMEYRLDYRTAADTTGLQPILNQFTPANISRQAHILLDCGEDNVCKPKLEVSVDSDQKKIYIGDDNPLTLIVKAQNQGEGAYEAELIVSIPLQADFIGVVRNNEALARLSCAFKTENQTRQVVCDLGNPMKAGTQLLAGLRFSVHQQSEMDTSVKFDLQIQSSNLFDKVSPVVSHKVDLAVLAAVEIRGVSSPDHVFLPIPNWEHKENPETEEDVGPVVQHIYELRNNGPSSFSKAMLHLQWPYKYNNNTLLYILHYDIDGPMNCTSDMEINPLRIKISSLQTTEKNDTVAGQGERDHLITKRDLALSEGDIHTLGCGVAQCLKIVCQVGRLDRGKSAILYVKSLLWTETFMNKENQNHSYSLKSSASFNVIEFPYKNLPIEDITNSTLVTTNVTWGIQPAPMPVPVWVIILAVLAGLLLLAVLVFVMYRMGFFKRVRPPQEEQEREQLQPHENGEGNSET
Chain of human integrin αvβ5 (P18084 24-799): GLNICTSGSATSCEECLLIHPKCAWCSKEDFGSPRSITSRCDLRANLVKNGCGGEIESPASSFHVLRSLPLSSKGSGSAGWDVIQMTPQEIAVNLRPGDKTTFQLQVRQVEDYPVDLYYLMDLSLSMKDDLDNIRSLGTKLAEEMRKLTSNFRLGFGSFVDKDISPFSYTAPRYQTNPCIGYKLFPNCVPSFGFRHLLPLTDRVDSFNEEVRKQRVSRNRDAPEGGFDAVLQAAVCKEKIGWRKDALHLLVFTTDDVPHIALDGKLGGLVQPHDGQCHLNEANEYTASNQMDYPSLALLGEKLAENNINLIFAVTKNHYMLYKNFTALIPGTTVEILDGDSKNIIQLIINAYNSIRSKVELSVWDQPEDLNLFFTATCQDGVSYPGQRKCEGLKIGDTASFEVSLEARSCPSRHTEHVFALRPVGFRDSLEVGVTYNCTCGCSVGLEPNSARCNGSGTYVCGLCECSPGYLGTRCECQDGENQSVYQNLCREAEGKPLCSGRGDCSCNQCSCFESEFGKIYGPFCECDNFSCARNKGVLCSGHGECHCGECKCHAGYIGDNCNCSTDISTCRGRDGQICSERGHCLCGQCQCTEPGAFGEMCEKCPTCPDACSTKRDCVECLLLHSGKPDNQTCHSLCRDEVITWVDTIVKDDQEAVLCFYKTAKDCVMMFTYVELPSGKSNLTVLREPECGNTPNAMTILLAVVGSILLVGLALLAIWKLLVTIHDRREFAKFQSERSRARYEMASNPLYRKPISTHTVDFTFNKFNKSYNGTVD
Procedure, shortened: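 Human αvβ5 (30-1,000 nM) flowed for 10 min at 25 °C over immobilized cyclic peptide in 20 mM HEPES, 150 mM NaCl, 5 mM MgCl2, pH 7.4, followed by 30 min running buffer and 0.5 M EDTA regeneration. Dissociation constant from peptide minus unimmobilized channel, scored into standard grades.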

[1] = Evaluation of molecule stability (alkali treatment, residual rate by LC/MS); assay type: physicochemical; conditions: for Stability (molecule stability, residual rate of the cyclic peptide rank): alkali treatment, residual rate by LC/MS; for Performance evaluation: Stability (residual rate of cyclic peptide after alkali treatment): 500 μM peptide aqueous solution plus equivalent of 1 M sodium hydroxide, 15° C., 3 hours, LC/MS peak area
Procedure, shortened: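 Stability read as percent of summed LC/MS peak area remaining versus untreated peptide (C18, 45 °C, 10 mM ammonium formate pH 3, ESI positive/negative). Treatment: 500 μM peptide in water plus an equivalent of 1 M NaOH, 15 °C for 3 hours.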

[2] = surface plasmon resonance, immobilized cyclic peptide, human integrin αvβ5, read-out: Binding activity (integrin binding property, dissociation constant rank)
[3] = SPR, 25° C., HEPES buffer with 5 mM magnesium chloride, integrin 30-1,000 nM, read-out: Performance evaluation: Binding activity (dissociation constant between the cyclic peptide and human integrin αvβ5)

Compound	Kd (human integrin αvβ5; [2]) [nM]	Stability (molecule stability, residual rate of the cyclic peptide rank) [1]	Kd (human integrin αvβ5; [3]) [nM]	Performance evaluation: Stability (residual rate of cyclic peptide after alkali treatment) [1]
CC[C@H](C)[C@@H]1NC(=O)[C@@H](NC(=O)CNC(=O)[C@H](CCCCN)NC(=O)[C@H](CCCCN)NC(=O)[C@@H](N)CCCCN)C(C)(C)SCC(=O)NCCCC[C@@H](C(=O)N[C@@H](C)C(=O)O)NC(=O)[C@H](CCCNC(=N)N)NC(=O)[C@H](Cc2ccccc2)NC(=O)[C@H]([C@@H](C)O)NC(=O)[C@H](CC(=O)O)NC(=O)CNC(=O)[C@H](CCCNC(=N)N)NC(=O)[C@@H]2CCCN2C1=O [Cyclic peptide 131, KKKG-(Pen)-IPRGDTFR(Lys(acetyl))A] (H-KKKG[Pen]IPRGDTFRKA-OH; linker 5-14 via X2)	50 to 100	A (The residual rate of the cyclic peptide is 70% or more.)		
CC(C)[C@@H]1NC(=O)[C@@H](NC(=O)[C@H](C)N)CCSCC(=O)NCC[C@@H](C(=O)N[C@@H](C)C(=O)O)NC(=O)[C@H](C)NC(=O)[C@H](Cc2ccccc2)NC(=O)[C@H]([C@@H](C)O)NC(=O)[C@H](CC(=O)O)NC(=O)CNC(=O)[C@H](CCCNC(=N)N)NC(=O)[C@@H]2CCCN2C1=O [Cyclic peptide 125, A-(Hcy)-VPRGDTFA(Dab(acetyl))A] (H-A[hCys]VPRGDTFA[Dab]A-OH; linker 2-11 via X2)	< 50	A (The residual rate of the cyclic peptide is 70% or more.)		
CC[C@H](C)[C@@H]1NC(=O)[C@@H](NC(=O)[C@H](C)NC(=O)[C@H](CCCCN)NC(=O)[C@H](CCCCN)NC(=O)[C@@H](N)CCCCN)CCSCC(=O)NCC[C@@H](C(=O)N[C@@H](C)C(=O)O)NC(=O)CNC(=O)[C@H](Cc2ccccc2)NC(=O)[C@H]([C@@H](C)O)NC(=O)[C@H](CC(=O)O)NC(=O)CNC(=O)[C@H](CCCNC(=N)N)NC(=O)[C@@H]2CCCN2C1=O [Cyclic peptide 88, KKKA-(Hcy)-IPRGDTFG(Dab(acetyl))A] (H-KKKA[hCys]IPRGDTFG[Dab]A-OH; linker 5-14 via X2)			< 50	A (The residual rate of the cyclic peptide is 70% or more.)
CC[C@H](C)[C@@H]1NC(=O)[C@@H](NC(=O)[C@H](C)NC(=O)[C@H](CCCCN)NC(=O)[C@H](CCCCN)NC(=O)[C@@H](N)CCCCN)CCSCC(=O)NCC[C@@H](C(=O)NCC(=O)O)NC(=O)[C@H](C)NC(=O)[C@H](Cc2ccccc2)NC(=O)[C@H](CO)NC(=O)[C@H](CC(=O)O)NC(=O)CNC(=O)[C@H](CCCNC(=N)N)NC(=O)[C@@H]2CCCN2C1=O [Cyclic peptide 93, KKKA-(Hcy)-IPRGDSFA(Dab(acetyl))G] (H-KKKA[hCys]IPRGDSFA[Dab]G-OH; linker 5-14 via X2)			< 50	A (The residual rate of the cyclic peptide is 70% or more.)
CC[C@H](C)[C@@H]1NC(=O)[C@@H](NC(=O)[C@H](CCCCN)NC(=O)[C@H](CCCCN)NC(=O)[C@@H](N)CCCCN)CCSCC(=O)NCC[C@@H](C(=O)O)NC(=O)[C@H](CCCNC(=N)N)NC(=O)[C@H](Cc2ccccc2)NC(=O)[C@H](CC(N)=O)NC(=O)[C@H](CC(=O)O)NC(=O)CNC(=O)[C@H](CCCNC(=N)N)NC(=O)[C@@H]2CCCN2C1=O [Cyclic peptide 11, KKK-(Hcy)-IPRGDNFR(Dab(acetyl))] (H-KKK[hCys]IPRGDNFR[Dab]-OH; linker 4-13 via X2)			< 50	A (The residual rate of the cyclic peptide is 70% or more.)
CC[C@H](C)[C@@H]1NC(=O)[C@@H](NC(=O)CNC(=O)[C@H](CCCCN)NC(=O)[C@H](CCCCN)NC(=O)[C@@H](N)CCCCN)CCSCC(=O)NCC[C@@H](C(=O)N[C@@H](C)C(=O)O)NC(=O)[C@H](Cc2ccccc2)NC(=O)[C@H](CC(N)=O)NC(=O)[C@H](CC(=O)O)NC(=O)CNC(=O)[C@H](CCCNC(=N)N)NC(=O)[C@@H]2CCCN2C1=O [Cyclic peptide 6, KKKG-(Hcy)-IPRGDNF(Dab(acetyl))A] (H-KKKG[hCys]IPRGDNF[Dab]A-OH; linker 5-13 via X2)			50 to 100	A (The residual rate of the cyclic peptide is 70% or more.)
C[C@H](NC(=O)[C@H](CCCCN)NC(=O)[C@H](CCCCN)NC(=O)[C@@H](N)CCCCN)C(=O)N[C@H]1CCSCC(=O)NCC[C@@H](C(=O)N[C@@H](CC(=O)O)C(=O)O)NC(=O)[C@H](CCC(=O)O)NC(=O)[C@H](Cc2ccc(O)cc2)NC(=O)[C@H](CC(N)=O)NC(=O)[C@H](CC(=O)O)NC(=O)CNC(=O)[C@H](CCCNC(=N)N)NC(=O)[C@@H]2CCCN2C(=O)[C@H](CCC(=O)O)NC1=O [Cyclic peptide 36, KKKA-(Hcy)-EPRGDNYE(Dab(acetyl))D] (H-KKKA[hCys]EPRGDNYE[Dab]D-OH; linker 5-14 via X2)			50 to 100	A (The residual rate of the cyclic peptide is 70% or more.)
C[C@H](NC(=O)[C@H](CCCCN)NC(=O)[C@H](CCCCN)NC(=O)[C@@H](N)CCCCN)C(=O)N[C@H]1CCSCC(=O)NCC[C@@H](C(=O)N[C@@H](CC(=O)O)C(=O)O)NC(=O)[C@H](CC(=O)O)NC(=O)[C@H](Cc2ccc(O)cc2)NC(=O)[C@H](CC(N)=O)NC(=O)[C@H](CC(=O)O)NC(=O)CNC(=O)[C@H](CCCNC(=N)N)NC(=O)[C@@H]2CCCN2C(=O)[C@H](CCC(=O)O)NC1=O [Cyclic peptide 35, KKKA-(Hcy)-EPRGDNYD(Dab(acetyl))D] (H-KKKA[hCys]EPRGDNYD[Dab]D-OH; linker 5-14 via X2)			100 to 200	A (The residual rate of the cyclic peptide is 70% or more.)
CC[C@H](C)[C@@H]1NC(=O)[C@@H](NC(=O)[C@H](C)NC(=O)[C@H](CCCCN)NC(=O)[C@H](CCCCN)NC(=O)[C@@H](N)CCCCN)CCSCC(=O)NCC[C@@H](C(=O)N[C@@H](C)C(=O)O)NC(=O)[C@H](C)NC(=O)[C@H](Cc2ccccc2)NC(=O)[C@H]([C@@H](C)O)NC(=O)[C@H](CC(=O)O)NC(=O)CNC(=O)[C@H](CCCNC(=N)N)NC(=O)[C@@H]2CCCN2C1=O [Cyclic peptide 87, KKKA-(Hcy)-IPRGDTFA(Dab(acetyl))A] (H-KKKA[hCys]IPRGDTFA[Dab]A-OH; linker 5-14 via X2)			< 50	A (The residual rate of the cyclic peptide is 70% or more.)
CC[C@H](C)[C@@H]1NC(=O)[C@@H](NC(=O)[C@H](C)NC(=O)[C@H](CCCCN)NC(=O)[C@H](CCCCN)NC(=O)[C@@H](N)CCCCN)CCSCC(=O)NCC[C@@H](C(=O)N[C@@H](CC(=O)O)C(=O)O)NC(=O)[C@H](CCCNC(=N)N)NC(=O)[C@H](Cc2ccc(O)cc2)NC(=O)[C@H](CC(N)=O)NC(=O)[C@H](CC(=O)O)NC(=O)CNC(=O)[C@H](CCCNC(=N)N)NC(=O)[C@@H]2CCCN2C1=O [Cyclic peptide 30, KKKA-(Hcy)-IPRGDNYR(Dab(acetyl))D] (H-KKKA[hCys]IPRGDNYR[Dab]D-OH; linker 5-14 via X2)			< 50	A (The residual rate of the cyclic peptide is 70% or more.)
C[C@H](NC(=O)[C@@H]1CCNC(=O)CSCC[C@H](NC(=O)[C@H](CCCCN)NC(=O)[C@H](CCCCN)NC(=O)[C@@H](N)CCCCN)C(=O)N[C@@H]([C@@H](C)O)C(=O)N2CCC[C@H]2C(=O)N[C@@H](CCCNC(=N)N)C(=O)NCC(=O)N[C@@H](CC(=O)O)C(=O)N[C@@H]([C@@H](C)O)C(=O)N[C@@H](Cc2ccccc2)C(=O)N[C@@H](C)C(=O)N1)C(=O)O [Cyclic peptide 159, KKK-(Hcy)-TPRGDTFA(Dab(acetyl))A] (H-KKK[hCys]TPRGDTFA[Dab]A-OH; linker 4-13 via X2)	< 50	A (The residual rate of the cyclic peptide is 70% or more.)		
CC[C@H](C)[C@@H]1NC(=O)[C@@H](NC(=O)CNC(=O)[C@H](CCCCN)NC(=O)[C@H](CCCCN)NC(=O)[C@@H](N)CCCCN)CCCNC(=O)CSCC[C@@H](C(=O)N[C@@H](C)C(=O)O)NC(=O)[C@H](CCCNC(=N)N)NC(=O)[C@H](Cc2ccccc2)NC(=O)[C@H]([C@@H](C)O)NC(=O)[C@H](CC(=O)O)NC(=O)CNC(=O)[C@H](CCCNC(=N)N)NC(=O)[C@@H]2CCCN2C1=O [Cyclic peptide 119, KKKG(Orn(acetyl))IPRGDTFR-(Hcy)-A] (H-KKKG[Orn]IPRGDTFR[hCys]A-OH; linker 5-14 via X1)	< 50	A (The residual rate of the cyclic peptide is 70% or more.)		
CC[C@H](C)[C@@H]1NC(=O)[C@H](C)NC(=O)[C@@H](NC(=O)CNC(=O)[C@H](CCCCN)NC(=O)[C@H](CCCCN)NC(=O)[C@@H](N)CCCCN)CCSCC(=O)NCC[C@@H](C(=O)N[C@@H](C)C(=O)O)NC(=O)[C@H](C)NC(=O)[C@H](CCCNC(=N)N)NC(=O)[C@H](Cc2ccccc2)NC(=O)[C@H]([C@@H](C)O)NC(=O)[C@H](CC(=O)O)NC(=O)CNC(=O)[C@H](CCCNC(=N)N)NC(=O)[C@@H]2CCCN2C1=O [Cyclic peptide 67, KKKG-(Hcy)-AIPRGDTFRA(Dab(acetyl))A] (H-KKKG[hCys]AIPRGDTFRA[Dab]A-OH; linker 5-16 via X2)			< 50	A (The residual rate of the cyclic peptide is 70% or more.)
